Test results: paper PMC5078040 (Oncotarget, 2016)

Tests used:
NEK7 = target: T1, NEK7 (Homo sapiens, UniProt Q8TDX7); assay: KinomeScan; assay type: binding; conditions: 1uM
T1 construct: purchased DiscoveRx KINOMEscan

STK35 = target: T2, STK35 (Homo sapiens, UniProt Q8TDR2); assay: KinomeScan; assay type: binding; conditions: 1uM
T2 construct: purchased DiscoveRx KINOMEscan

CLK2 = target: T3, CLK2 (Homo sapiens, UniProt P49760); assay: KinomeScan; assay type: binding; conditions: 1uM
T3 construct: purchased DiscoveRx KINOMEscan

ACVR2A = target: T4, ACVR2A (Homo sapiens, UniProt P27037); assay: KinomeScan; assay type: binding; conditions: 1uM
T4 construct: purchased DiscoveRx KINOMEscan

PRKCH = target: T5, PRKCH (Homo sapiens, UniProt P24723); assay: KinomeScan; assay type: binding; conditions: 1uM
T5 construct: purchased DiscoveRx KINOMEscan

PCTK1 = target: T6, PCTK1 (Homo sapiens, UniProt Q00536); assay: KinomeScan; assay type: binding; conditions: 1uM
T6 construct: purchased DiscoveRx KINOMEscan

TGFBR2 = target: T7, TGFBR2 (Homo sapiens, UniProt P37173); assay: KinomeScan; assay type: binding; conditions: 1uM
T7 construct: purchased DiscoveRx KINOMEscan

FLT3-autoinhibited = target: T8, FLT3-autoinhibited (Homo sapiens, UniProt P36888); assay: KinomeScan; assay type: binding; conditions: 1uM
T8 construct: purchased DiscoveRx KINOMEscan

OSR1 = target: T9, OSR1 (Homo sapiens, UniProt O95747); assay: KinomeScan; assay type: binding; conditions: 1uM
T9 construct: purchased DiscoveRx KINOMEscan

NEK3 = target: T10, NEK3 (Homo sapiens, UniProt P51956); assay: KinomeScan; assay type: binding; conditions: 1uM
T10 construct: purchased DiscoveRx KINOMEscan

RIOK3 = target: T11, RIOK3 (Homo sapiens, UniProt O14730); assay: KinomeScan; assay type: binding; conditions: 1uM
T11 construct: purchased DiscoveRx KINOMEscan

PDGFRA = target: T12, PDGFRA (Homo sapiens, UniProt P16234); assay: KinomeScan; assay type: binding; conditions: 1uM
T12 construct: purchased DiscoveRx KINOMEscan

FGFR4 = target: T13, FGFR4 (Homo sapiens, UniProt P22455); assay: KinomeScan; assay type: binding; conditions: 1uM
T13 construct: purchased DiscoveRx KINOMEscan

SRPK2 = target: T14, SRPK2 (Homo sapiens, UniProt P78362); assay: KinomeScan; assay type: binding; conditions: 1uM
T14 construct: purchased DiscoveRx KINOMEscan

ITK = target: T15, ITK (Homo sapiens, UniProt Q08881); assay: KinomeScan; assay type: binding; conditions: 1uM
T15 construct: purchased DiscoveRx KINOMEscan

ACVRL1 = target: T16, ACVRL1 (Homo sapiens, UniProt P37023); assay: KinomeScan; assay type: binding; conditions: 1uM
T16 construct: purchased DiscoveRx KINOMEscan

CDK9 = target: T17, CDK9 (Homo sapiens, UniProt P50750); assay: KinomeScan; assay type: binding; conditions: 1uM
T17 construct: purchased DiscoveRx KINOMEscan

CAMK2D = target: T18, CAMK2D (Homo sapiens, UniProt Q13557); assay: KinomeScan; assay type: binding; conditions: 1uM
T18 construct: purchased DiscoveRx KINOMEscan

BRAF = target: T19, BRAF (Homo sapiens, UniProt P15056); assay: KinomeScan; assay type: binding; conditions: 1uM
T19 construct: purchased DiscoveRx KINOMEscan

PI4KB = target: T20, PI4KB (Homo sapiens, UniProt Q9UBF8); assay: ADP-glo biochemical assay
T20 construct: purchased Invitrogen
Method: (§1) The reaction in each tube was started immediately by adding ATP and kept going for an hour under 37°C. After the tube cooled for 5 minutes at room temperature, 5 μL solvent reactions were carried out in a 384-well plate. Then 5 μL of ADP-Glo™ reagent was added into each well to stop the reaction and consume the remaining ADP within 40 minutes. At the end, 10 μL of kinase detection reagent was added into the well and incubated for 30 minutes to produce a luminescence signal. Luminescence signal was measured with an automated plate reader (Perkin-Elmer Envision) and each measurement was performed in triplicate.

LC3B II = assay: Autophagy (western-blot); assay type: cell-based, human; conditions: 12 hours
Source text: Cells were then washed in PBS and lysed in cell lysis buffer and detected by western-blot using LC3B, GAPDH antibody (Cell signaling Technology).

LATS2 = target: T21, LATS2 (Homo sapiens, UniProt Q9NRM7); assay: KinomeScan; assay type: binding; conditions: 1uM
T21 construct: purchased DiscoveRx KINOMEscan

CSF1R-autoinhibited = target: T22, CSF1R-autoinhibited (Homo sapiens, UniProt P07333); assay: KinomeScan; assay type: binding; conditions: 1uM
T22 construct: purchased DiscoveRx KINOMEscan

[1] = target: T23, RSK4(Kin.Dom.2-C-terminal) (Homo sapiens, UniProt Q9UK32); assay: KinomeScan; assay type: binding; conditions: 1uM
T23 construct: RSK4(Kin.Dom.2-C-terminal); purchased DiscoveRx KINOMEscan

HIPK3 = target: T24, HIPK3 (Homo sapiens, UniProt Q9H422); assay: KinomeScan; assay type: binding; conditions: 1uM
T24 construct: purchased DiscoveRx KINOMEscan

PI3Kγ = PI3Kγ (Mus musculus, UniProt Q9JHG7); assay: cell-based
TAK1 = target: T25, TAK1 (Homo sapiens, UniProt O43318); assay: KinomeScan; assay type: binding; conditions: 1uM
T25 construct: purchased DiscoveRx KINOMEscan

TIE2 = target: T26, TIE2 (Homo sapiens, UniProt Q02763); assay: KinomeScan; assay type: binding; conditions: 1uM
T26 construct: purchased DiscoveRx KINOMEscan

MLK2 = target: T27, MLK2 (Homo sapiens, UniProt Q02779); assay: KinomeScan; assay type: binding; conditions: 1uM
T27 construct: purchased DiscoveRx KINOMEscan

TSSK1B = target: T28, TSSK1B (Homo sapiens, UniProt Q9BXA7); assay: KinomeScan; assay type: binding; conditions: 1uM
T28 construct: purchased DiscoveRx KINOMEscan

[2] = target: T29, RSK2(Kin.Dom.2-C-terminal) (Homo sapiens, UniProt P51812); assay: KinomeScan; assay type: binding; conditions: 1uM
T29 construct: RSK2(Kin.Dom.2-C-terminal); purchased DiscoveRx KINOMEscan

ULK3 = target: T30, ULK3 (Homo sapiens, UniProt Q6PHR2); assay: KinomeScan; assay type: binding; conditions: 1uM
T30 construct: purchased DiscoveRx KINOMEscan

ADCK4 = target: T31, ADCK4 (Homo sapiens, UniProt Q96D53); assay: KinomeScan; assay type: binding; conditions: 1uM
T31 construct: purchased DiscoveRx KINOMEscan

PRKD2 = target: T32, PRKD2 (Homo sapiens, UniProt Q9BZL6); assay: KinomeScan; assay type: binding; conditions: 1uM
T32 construct: purchased DiscoveRx KINOMEscan

EPHA7 = target: T33, EPHA7 (Homo sapiens, UniProt Q15375); assay: KinomeScan; assay type: binding; conditions: 1uM
T33 construct: purchased DiscoveRx KINOMEscan

GRK4 = target: T34, GRK4 (Homo sapiens, UniProt P32298); assay: KinomeScan; assay type: binding; conditions: 1uM
T34 construct: purchased DiscoveRx KINOMEscan

MST3 = target: T35, MST3 (Homo sapiens, UniProt Q9Y6E0); assay: KinomeScan; assay type: binding; conditions: 1uM
T35 construct: purchased DiscoveRx KINOMEscan

HCK = target: T36, HCK (Homo sapiens, UniProt P08631); assay: KinomeScan; assay type: binding; conditions: 1uM
T36 construct: purchased DiscoveRx KINOMEscan

PI3Kα = PI3Kα (Homo sapiens, UniProt P42336); assay: biochemical
Method: as §1

PIK3CA(Q546K) = target: T37, PIK3CA(Q546K) (Homo sapiens, UniProt P42336, Q546K); assay: KinomeScan; assay type: binding; conditions: 1uM
T37 construct: purchased DiscoveRx KINOMEscan

CDK8 = target: T38, CDK8 (Homo sapiens, UniProt P49336); assay: KinomeScan; assay type: binding; conditions: 1uM
T38 construct: purchased DiscoveRx KINOMEscan

CAMK1D = target: T39, CAMK1D (Homo sapiens, UniProt Q8IU85); assay: KinomeScan; assay type: binding; conditions: 1uM
T39 construct: purchased DiscoveRx KINOMEscan

T7 sequence (P37173 23-567): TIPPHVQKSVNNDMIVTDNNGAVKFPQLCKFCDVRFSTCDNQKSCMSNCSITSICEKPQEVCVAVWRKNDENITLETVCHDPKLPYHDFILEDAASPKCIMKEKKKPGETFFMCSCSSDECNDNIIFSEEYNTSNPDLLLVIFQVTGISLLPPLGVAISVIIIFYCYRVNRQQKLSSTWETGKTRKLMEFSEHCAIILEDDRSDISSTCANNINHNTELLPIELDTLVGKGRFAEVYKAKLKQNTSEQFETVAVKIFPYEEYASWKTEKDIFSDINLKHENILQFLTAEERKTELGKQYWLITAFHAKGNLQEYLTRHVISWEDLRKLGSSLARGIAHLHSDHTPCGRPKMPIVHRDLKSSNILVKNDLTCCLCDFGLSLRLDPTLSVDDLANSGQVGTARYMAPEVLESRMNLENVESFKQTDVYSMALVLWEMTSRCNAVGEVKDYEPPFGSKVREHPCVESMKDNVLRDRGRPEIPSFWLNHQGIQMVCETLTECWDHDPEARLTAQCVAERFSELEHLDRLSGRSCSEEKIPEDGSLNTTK
T27 sequence (Q02779 whole entry): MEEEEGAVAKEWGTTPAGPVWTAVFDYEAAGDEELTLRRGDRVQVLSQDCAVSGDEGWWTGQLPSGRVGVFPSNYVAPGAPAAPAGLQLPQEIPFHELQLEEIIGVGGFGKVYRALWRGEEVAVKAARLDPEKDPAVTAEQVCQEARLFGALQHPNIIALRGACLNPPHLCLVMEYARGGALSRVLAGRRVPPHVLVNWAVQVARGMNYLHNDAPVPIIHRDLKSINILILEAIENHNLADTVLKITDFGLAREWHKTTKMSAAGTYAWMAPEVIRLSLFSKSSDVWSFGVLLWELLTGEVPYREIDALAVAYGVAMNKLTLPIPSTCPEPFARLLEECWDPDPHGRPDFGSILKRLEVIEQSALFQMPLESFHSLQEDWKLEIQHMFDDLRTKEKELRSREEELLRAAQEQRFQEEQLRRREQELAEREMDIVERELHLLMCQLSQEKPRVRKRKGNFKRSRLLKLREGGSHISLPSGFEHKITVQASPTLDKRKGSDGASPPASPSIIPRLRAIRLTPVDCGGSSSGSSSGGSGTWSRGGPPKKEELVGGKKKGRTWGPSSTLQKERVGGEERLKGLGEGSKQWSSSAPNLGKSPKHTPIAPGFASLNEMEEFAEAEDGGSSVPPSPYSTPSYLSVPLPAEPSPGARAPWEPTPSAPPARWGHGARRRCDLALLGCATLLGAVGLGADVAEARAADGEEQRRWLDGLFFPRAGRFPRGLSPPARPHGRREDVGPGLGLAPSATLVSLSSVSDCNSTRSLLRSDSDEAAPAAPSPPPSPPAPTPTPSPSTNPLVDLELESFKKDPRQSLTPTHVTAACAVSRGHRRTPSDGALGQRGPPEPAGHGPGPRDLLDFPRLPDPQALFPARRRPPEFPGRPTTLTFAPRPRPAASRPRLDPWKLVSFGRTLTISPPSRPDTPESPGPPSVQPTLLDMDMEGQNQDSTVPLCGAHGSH
T13 sequence (P22455 22-802): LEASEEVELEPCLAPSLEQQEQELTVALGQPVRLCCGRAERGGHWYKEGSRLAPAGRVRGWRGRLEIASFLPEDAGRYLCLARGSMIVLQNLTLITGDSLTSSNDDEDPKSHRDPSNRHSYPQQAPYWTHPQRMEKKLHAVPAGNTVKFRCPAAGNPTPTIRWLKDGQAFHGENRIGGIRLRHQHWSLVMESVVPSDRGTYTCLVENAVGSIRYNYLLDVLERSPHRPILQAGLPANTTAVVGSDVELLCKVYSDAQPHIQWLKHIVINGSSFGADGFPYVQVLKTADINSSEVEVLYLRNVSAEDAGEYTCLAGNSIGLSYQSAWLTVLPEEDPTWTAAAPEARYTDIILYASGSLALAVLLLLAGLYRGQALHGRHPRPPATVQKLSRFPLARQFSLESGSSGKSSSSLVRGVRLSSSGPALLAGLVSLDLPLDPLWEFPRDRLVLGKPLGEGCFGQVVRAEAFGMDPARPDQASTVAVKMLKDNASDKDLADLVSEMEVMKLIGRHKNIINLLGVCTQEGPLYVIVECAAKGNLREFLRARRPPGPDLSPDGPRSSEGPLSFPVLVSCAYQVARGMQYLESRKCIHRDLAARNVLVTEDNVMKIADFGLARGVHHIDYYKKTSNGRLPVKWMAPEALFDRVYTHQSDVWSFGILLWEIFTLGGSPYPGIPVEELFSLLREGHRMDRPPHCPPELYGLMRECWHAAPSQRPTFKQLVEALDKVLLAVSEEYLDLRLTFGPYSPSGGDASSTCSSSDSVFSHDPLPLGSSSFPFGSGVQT
T31 sequence (Q96D53 whole entry): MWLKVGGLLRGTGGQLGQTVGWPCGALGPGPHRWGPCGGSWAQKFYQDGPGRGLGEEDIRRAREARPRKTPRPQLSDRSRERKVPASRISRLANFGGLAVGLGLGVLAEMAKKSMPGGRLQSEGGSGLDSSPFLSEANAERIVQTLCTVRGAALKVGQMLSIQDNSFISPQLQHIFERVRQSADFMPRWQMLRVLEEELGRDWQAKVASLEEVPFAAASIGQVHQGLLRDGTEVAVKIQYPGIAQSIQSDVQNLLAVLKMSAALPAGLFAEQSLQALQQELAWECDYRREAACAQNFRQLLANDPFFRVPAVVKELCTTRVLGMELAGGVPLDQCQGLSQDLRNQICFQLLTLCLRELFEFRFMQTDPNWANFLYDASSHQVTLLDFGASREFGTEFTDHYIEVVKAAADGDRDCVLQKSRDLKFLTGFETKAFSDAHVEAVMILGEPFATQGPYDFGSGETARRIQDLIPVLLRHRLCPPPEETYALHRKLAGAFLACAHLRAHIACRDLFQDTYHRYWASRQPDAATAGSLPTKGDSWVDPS
T19 sequence (P15056 whole entry): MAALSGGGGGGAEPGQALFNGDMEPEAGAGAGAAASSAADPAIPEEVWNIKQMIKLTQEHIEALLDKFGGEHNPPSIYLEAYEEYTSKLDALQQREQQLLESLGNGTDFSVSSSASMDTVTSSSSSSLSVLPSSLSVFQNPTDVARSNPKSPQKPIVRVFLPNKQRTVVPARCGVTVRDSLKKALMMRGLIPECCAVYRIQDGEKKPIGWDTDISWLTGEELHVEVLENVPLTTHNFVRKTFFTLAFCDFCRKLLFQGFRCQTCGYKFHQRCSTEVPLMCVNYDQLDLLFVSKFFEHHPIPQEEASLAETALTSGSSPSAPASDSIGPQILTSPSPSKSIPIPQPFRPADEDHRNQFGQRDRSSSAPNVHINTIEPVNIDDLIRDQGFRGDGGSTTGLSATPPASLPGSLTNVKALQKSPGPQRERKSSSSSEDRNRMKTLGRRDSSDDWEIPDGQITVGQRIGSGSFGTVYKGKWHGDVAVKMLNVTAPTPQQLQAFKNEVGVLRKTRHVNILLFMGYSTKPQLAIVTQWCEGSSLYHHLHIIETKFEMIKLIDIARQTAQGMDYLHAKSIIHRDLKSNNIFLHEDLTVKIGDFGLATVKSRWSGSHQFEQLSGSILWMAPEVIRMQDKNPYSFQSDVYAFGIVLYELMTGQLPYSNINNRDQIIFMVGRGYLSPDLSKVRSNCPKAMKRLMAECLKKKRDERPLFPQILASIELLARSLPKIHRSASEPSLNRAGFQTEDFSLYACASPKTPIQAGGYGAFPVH
T36 sequence (P08631 whole entry): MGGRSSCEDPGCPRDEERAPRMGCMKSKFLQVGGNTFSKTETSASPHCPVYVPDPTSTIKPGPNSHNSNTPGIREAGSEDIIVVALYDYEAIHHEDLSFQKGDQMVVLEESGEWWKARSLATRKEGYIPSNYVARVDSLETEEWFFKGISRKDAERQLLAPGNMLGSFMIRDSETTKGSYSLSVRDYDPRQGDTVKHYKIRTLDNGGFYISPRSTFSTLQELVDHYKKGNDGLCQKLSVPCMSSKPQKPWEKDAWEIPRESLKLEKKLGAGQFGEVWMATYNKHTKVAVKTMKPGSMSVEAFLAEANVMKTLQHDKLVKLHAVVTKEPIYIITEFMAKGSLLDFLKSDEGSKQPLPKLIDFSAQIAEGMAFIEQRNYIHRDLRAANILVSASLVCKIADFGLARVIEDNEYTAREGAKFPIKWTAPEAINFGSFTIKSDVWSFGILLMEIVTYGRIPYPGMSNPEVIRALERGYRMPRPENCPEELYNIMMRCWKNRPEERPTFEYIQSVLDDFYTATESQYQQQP
T3 sequence (P49760 whole entry): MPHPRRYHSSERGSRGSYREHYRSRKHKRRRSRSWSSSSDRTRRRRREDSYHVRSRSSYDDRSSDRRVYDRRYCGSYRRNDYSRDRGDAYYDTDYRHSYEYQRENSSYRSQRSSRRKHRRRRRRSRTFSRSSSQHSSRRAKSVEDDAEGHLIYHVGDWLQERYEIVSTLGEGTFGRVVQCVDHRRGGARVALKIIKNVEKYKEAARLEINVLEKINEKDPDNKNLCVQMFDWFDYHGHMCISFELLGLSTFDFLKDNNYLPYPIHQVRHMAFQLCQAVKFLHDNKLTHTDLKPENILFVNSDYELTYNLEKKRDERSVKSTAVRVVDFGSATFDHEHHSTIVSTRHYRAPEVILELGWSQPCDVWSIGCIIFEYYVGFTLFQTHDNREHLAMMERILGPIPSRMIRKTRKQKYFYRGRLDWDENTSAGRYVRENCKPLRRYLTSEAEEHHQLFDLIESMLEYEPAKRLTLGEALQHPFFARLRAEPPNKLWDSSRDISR
T28 sequence (Q9BXA7 whole entry): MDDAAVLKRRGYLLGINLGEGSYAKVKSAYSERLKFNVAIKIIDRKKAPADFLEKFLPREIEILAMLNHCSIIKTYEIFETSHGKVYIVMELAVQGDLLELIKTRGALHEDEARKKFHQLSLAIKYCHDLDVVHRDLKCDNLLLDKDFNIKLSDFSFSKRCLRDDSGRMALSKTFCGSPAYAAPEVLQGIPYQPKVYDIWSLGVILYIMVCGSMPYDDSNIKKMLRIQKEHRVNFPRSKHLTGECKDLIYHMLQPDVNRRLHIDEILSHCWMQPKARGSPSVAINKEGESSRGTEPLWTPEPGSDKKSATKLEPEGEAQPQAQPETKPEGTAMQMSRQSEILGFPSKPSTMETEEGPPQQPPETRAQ

Cc1nc(NC(=O)[C@@H](N)C(C)C)sc1-c1cnc(Cl)c(NS(=O)(=O)c2ccccc2)c1 [PI3KD-IN-015]
KinomeScan NEK7 (NEK7): 100 | KinomeScan STK35 (STK35): 92 | KinomeScan CLK2 (CLK2): 90 | KinomeScan ACVR2A (ACVR2A): 100 | KinomeScan PRKCH (PRKCH): 100 | KinomeScan PCTK1 (PCTK1): 93 | KinomeScan TGFBR2 (TGFBR2): 100 | KinomeScan FLT3-autoinhibited (FLT3-autoinhibited): 100 | KinomeScan OSR1 (OSR1): 75 | KinomeScan NEK3 (NEK3): 100 | KinomeScan RIOK3 (RIOK3): 96 | KinomeScan PDGFRA (PDGFRA): 94 | KinomeScan FGFR4 (FGFR4): 93 | KinomeScan SRPK2 (SRPK2): 100 | KinomeScan ITK (ITK): 100 | KinomeScan ACVRL1 (ACVRL1): 100 | KinomeScan CDK9 (CDK9): 100 | KinomeScan CAMK2D (CAMK2D): 95 | KinomeScan BRAF (BRAF): 93 | IC50 (PI4KB): 172 nM | autophagy induction (LC3B II) (LC3B II; HT cells and MEC-1 cells): significantly increased the production of LC3B II | autophagy induction (LC3B II; MOLM-13 cell): no apparent autophagy induction | KinomeScan LATS2 (LATS2): 100 | KinomeScan CSF1R-autoinhibited (CSF1R-autoinhibited): 100 | KinomeScan RSK4(Kin.Dom.2-C-terminal) [1]: 99 | KinomeScan HIPK3 (HIPK3): 100 | EC50 (PI3Kγ): > 3000 nM | KinomeScan TAK1 (TAK1): 100 | KinomeScan TIE2 (TIE2): 89 | KinomeScan MLK2 (MLK2): 89 | KinomeScan TSSK1B (TSSK1B): 97 | KinomeScan RSK2(Kin.Dom.2-C-terminal) [2]: 100 | KinomeScan ULK3 (ULK3): 88 | KinomeScan ADCK4 (ADCK4): 95 | KinomeScan PRKD2 (PRKD2): 94 | KinomeScan EPHA7 (EPHA7): 100 | KinomeScan GRK4 (GRK4): 92 | KinomeScan MST3 (MST3): 96 | KinomeScan HCK (HCK): 100 | IC50 (PI3Kα): 60 nM | KinomeScan PIK3CA(Q546K) (PIK3CA(Q546K)): 4.1 | KinomeScan CDK8 (CDK8): 100 | KinomeScan CAMK1D (CAMK1D): 94
